# Results: BindingDB's records for doi:10.1016/s0960-894x(98)00318-7 (National Taiwan University, 1999)
# Experiment: Binding affinity against Opioid receptor delta 1 was determined in brain membrane preparations from male Hartley guinea-pigs
row,Compound,Ki
1,"CCC1Oc2c(O)cccc2C12CCN(C)CC2 (stereo not drawn) [2-ethyl-1'-methylspiro[2,3-dihydrobenzo[b]furan-3,4'-(hexahydropyridine)]-7-ol]",0.853 µM
2,"CN1CCC2(CC1)COc1c(O)cccc12 [1'-methylspiro[2,3-dihydrobenzo[b]furan-3,4'-(hexahydropyridine)]-7-ol]",> 100 µM
3,"CC1Oc2c(O)cccc2C12CCN(C)CC2 (stereo not drawn) [1',2-dimethylspiro[2,3-dihydrobenzo[b]furan-3,4'-(hexahydropyridine)]-7-ol]",2.41 µM
